According to ChEMBL document CHEMBL1201862, “PubChem BioAssay data set” (2004):
Active and inactive are the calls of the source.

Experiments:
[1] = target: Diphosphomevalonate decarboxylase (Streptococcus pneumoniae serotype 2 (strain D39 / NCTC 7466), UniProt Q9FD53); experiment: diphosphomevalonate decarboxylase inhibitor confirmation – biochemical, cuvette format, coupled NADH fluorescence (AID 1028); assay type: functional
[2] = Fluorescence Cell-Based Dose Response to Identify Inhibitors of Thrombin Receptor-Activating Peptide SFLLRN-Mediated P-Selectin Induction on Platelets. [Related pubchem assays: 1663 (Primary HTS), 1889 (retest at dose ), 1891 (counterscreen), 1678 (Project Summary)]; assay type: functional
[3] = Luminescence Cell-Based Dose Confirmation HTS to Identify Inhibitors of Platelet Dense Granule Release. [Related pubchem assays: 1663 (Primary HTS), 1678 (Summary of Project)]; assay type: functional
[4] = target: Luciferin 4-monooxygenase (Photinus pyralis, UniProt P08659); experiment: inhibition of purified Photinus pyralis luciferase – biochemical, luminescence, dose response (AID 1891)
Sequence of Luciferin 4-monooxygenase (P08659 whole entry): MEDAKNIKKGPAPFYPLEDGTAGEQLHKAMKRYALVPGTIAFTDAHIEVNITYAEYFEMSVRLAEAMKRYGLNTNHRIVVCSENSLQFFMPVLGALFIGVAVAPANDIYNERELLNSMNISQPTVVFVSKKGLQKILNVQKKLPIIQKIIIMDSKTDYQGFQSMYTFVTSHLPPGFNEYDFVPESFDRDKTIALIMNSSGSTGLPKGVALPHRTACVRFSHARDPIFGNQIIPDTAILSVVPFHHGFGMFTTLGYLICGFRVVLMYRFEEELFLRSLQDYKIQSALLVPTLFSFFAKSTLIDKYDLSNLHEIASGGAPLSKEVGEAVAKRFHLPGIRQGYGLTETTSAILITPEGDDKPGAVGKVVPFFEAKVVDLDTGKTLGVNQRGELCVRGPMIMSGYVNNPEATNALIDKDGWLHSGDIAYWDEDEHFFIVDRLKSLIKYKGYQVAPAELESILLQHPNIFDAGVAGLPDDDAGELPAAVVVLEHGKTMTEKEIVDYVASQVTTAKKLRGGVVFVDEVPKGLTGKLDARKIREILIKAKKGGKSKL

[5] = target: T1, Zinc finger protein mex-5 (Caenorhabditis elegans, UniProt Q9XUB2); experiment: potency of MEX-5 RNA-binding blockers – biochemical, C. elegans, fluorescence polarization, dose response (AID 1960)
T1 sequence (Q9XUB2 whole entry): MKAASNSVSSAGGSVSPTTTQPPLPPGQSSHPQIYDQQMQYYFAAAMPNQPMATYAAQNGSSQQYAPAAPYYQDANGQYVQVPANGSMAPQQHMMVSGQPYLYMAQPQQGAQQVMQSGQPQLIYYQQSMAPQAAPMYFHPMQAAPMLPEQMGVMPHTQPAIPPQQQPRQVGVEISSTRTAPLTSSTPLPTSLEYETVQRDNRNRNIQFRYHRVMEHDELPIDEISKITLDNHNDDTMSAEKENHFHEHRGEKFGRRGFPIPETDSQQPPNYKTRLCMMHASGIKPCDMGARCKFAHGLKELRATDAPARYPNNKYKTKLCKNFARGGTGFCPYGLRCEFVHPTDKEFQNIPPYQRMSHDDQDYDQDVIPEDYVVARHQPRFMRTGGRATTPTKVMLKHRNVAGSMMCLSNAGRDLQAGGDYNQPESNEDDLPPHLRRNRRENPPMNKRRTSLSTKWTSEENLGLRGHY

[6] = target: T2, RNA-binding protein pos-1 (Caenorhabditis elegans, UniProt G5EF15); experiment: disruptors of C. elegans POS-1 RNA interaction – biochemical, fluorescence polarization, dose response (AID 1964);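 also: purified POS-1 fused to maltose binding protein made in E. coli; potency of compounds blocking POS-1 binding to fluorescent RNA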
T2 sequence (G5EF15 whole entry): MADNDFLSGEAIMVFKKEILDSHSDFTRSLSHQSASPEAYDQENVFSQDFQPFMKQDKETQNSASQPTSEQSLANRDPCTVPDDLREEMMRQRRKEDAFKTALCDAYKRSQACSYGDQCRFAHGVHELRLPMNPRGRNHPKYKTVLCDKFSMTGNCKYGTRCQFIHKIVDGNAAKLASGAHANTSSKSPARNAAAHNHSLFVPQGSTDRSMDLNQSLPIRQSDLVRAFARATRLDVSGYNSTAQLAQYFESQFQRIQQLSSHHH

Genome polyprotein = Genome polyprotein (dengue virus type 2, UniProt P29990); experiment: flavivirus cap methylation enzyme inhibition – biochemical, confirmation dose response, primary screen (AID 588689); assay type: functional
Sequence of Genome polyprotein (P29990 2492-3391 limits assumed): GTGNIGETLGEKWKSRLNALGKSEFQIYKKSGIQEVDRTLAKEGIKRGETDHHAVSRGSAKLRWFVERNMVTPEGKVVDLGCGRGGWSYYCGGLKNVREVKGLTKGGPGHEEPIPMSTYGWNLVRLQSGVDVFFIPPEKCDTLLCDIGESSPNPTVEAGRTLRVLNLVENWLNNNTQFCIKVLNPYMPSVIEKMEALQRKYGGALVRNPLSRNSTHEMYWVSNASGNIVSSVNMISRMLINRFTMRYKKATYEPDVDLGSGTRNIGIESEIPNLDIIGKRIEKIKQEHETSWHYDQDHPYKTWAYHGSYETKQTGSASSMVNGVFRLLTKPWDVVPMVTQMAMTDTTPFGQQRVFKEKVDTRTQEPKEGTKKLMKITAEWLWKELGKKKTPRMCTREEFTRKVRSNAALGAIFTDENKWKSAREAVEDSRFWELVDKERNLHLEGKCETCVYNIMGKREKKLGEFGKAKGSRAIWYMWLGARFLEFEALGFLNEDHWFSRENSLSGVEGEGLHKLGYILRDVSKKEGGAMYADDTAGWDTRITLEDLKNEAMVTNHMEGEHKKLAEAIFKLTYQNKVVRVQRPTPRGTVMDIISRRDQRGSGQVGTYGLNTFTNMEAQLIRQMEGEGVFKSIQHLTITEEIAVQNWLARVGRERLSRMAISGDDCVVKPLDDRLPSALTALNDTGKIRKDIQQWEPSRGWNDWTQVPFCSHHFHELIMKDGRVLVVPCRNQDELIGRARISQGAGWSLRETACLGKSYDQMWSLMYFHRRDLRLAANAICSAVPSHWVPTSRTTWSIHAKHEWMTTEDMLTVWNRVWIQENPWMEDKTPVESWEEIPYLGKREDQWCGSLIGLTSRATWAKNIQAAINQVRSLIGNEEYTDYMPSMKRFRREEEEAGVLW

Caspase-6 = target: T3, Caspase-6 (Homo sapiens, UniProt P55212); experiment: inhibition of CASP6 peptide cleavage – biochemical, VEID-R110 fluorescence, cherry-pick, dose response (AID 720632)
T3 sequence (P55212 whole entry): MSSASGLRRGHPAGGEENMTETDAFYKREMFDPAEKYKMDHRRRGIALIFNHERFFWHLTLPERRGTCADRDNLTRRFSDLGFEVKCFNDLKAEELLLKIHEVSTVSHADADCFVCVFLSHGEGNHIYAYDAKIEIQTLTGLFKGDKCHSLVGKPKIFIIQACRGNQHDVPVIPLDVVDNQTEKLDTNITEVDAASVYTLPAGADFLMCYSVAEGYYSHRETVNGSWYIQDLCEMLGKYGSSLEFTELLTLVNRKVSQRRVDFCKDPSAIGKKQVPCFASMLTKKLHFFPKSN

[7] = target: Induced myeloid leukemia cell differentiation protein Mcl-1 (Homo sapiens, UniProt Q07820); assay type: functional
Sequence of Induced myeloid leukemia cell differentiation protein Mcl-1 (Q07820 whole entry): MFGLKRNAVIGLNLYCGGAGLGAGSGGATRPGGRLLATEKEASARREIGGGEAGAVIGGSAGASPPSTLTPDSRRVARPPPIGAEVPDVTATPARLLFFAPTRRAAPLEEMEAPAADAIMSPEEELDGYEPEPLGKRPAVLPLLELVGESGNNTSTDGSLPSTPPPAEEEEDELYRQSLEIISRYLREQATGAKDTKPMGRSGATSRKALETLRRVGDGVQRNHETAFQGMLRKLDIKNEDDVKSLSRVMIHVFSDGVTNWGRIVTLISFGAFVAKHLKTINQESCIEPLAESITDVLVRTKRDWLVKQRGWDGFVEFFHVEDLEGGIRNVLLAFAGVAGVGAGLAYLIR

Vero [8] = experiment: viability of Vero cells under compound – cytotoxicity control for flavivirus capping enzyme inhibitors (AID 588742); assay type: functional; conditions: Chlorocebus sabaeus
[9] = target: Bifunctional protein GlmU (Mycobacterium tuberculosis, UniProt P9WMN3); experiment: Inhibitors of Mycobacterial Glucosamine-1-phosphate acetyl transferase (GlmU). Secondary screen.; parameters: species or system Mycobacterium tuberculosis H37Rv
Sequence of Bifunctional protein GlmU (P9WMN3 whole entry): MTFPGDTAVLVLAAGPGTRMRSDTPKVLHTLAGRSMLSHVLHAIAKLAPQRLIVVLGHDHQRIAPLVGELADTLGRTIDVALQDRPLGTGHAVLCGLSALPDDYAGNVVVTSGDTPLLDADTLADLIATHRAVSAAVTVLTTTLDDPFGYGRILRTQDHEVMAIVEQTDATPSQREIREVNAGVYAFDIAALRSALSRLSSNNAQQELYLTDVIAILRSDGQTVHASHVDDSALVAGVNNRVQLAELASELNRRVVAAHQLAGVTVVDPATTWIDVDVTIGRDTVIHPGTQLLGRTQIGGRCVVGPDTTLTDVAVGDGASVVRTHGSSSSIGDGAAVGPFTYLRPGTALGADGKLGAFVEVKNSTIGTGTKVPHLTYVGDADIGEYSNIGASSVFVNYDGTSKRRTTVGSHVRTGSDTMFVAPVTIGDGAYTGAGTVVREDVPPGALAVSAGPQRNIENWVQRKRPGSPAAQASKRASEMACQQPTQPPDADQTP

Vero [10] = experiment: inhibition of WNV-induced cytopathic effect – cell-based, CPE readout (AID 1621); assay type: functional; conditions: Chlorocebus sabaeus
Vero [11] = experiment: cells; assay type: functional; conditions: Chlorocebus sabaeus
[12] = target: T4, Aryl hydrocarbon receptor (Homo sapiens, UniProt P35869); experiment: Luminescence-based cell-based high throughput dose response assay for activators of the Aryl Hydrocarbon Receptor (AHR). [Related pubchem assays: 2796 (Primary screen (AHR activators in singlicate)), 2845 (Confirmation screen (AHR activators in triplicate)), 434939 (Counterscreen (PXR activators in triplicate)), 2804 (Summary (AHR activators))]; assay type: ADME
T4 sequence (P35869 whole entry): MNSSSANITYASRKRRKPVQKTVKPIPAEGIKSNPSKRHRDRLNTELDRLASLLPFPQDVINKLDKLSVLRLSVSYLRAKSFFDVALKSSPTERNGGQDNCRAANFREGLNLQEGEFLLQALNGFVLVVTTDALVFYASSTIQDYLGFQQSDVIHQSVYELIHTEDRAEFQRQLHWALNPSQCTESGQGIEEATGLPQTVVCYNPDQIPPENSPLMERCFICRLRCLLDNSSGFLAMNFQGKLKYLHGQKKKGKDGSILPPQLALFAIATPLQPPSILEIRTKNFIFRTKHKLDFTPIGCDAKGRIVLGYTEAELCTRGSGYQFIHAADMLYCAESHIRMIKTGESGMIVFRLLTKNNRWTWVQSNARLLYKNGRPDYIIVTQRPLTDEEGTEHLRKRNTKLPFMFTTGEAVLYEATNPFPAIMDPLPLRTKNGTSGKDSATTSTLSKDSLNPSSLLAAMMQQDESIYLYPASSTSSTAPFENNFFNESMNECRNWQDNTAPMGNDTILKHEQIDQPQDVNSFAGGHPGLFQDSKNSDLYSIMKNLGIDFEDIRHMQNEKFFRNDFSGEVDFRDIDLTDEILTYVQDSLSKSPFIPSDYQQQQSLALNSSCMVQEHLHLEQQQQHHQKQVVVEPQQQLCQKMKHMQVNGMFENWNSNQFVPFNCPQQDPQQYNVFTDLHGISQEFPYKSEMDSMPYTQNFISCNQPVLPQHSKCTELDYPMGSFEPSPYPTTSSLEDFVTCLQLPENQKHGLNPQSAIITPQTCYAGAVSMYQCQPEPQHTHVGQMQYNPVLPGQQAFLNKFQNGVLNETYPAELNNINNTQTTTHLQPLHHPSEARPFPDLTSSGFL

[13] = Luminescence Cell-Based Dose Confirmation HTS to Identify Inhibitors of Polyadenylation.; assay type: functional
[14] = target: E3 ubiquitin-protein ligase Mdm2 (Homo sapiens, UniProt Q00987); experiment: MDM2-luc reporter signal enhancers, multi-concentration potency testing, MDM2 ubiquitin-protein ligase inhibitor program, whole-cell format, luminescence detection, 384-well microplate (AID 1394); assay type: functional;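 also: MDM2 E3 inhibitors raise luminescence so EC50 is for signal enhancement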
Sequence of E3 ubiquitin-protein ligase Mdm2 (Q00987 whole entry): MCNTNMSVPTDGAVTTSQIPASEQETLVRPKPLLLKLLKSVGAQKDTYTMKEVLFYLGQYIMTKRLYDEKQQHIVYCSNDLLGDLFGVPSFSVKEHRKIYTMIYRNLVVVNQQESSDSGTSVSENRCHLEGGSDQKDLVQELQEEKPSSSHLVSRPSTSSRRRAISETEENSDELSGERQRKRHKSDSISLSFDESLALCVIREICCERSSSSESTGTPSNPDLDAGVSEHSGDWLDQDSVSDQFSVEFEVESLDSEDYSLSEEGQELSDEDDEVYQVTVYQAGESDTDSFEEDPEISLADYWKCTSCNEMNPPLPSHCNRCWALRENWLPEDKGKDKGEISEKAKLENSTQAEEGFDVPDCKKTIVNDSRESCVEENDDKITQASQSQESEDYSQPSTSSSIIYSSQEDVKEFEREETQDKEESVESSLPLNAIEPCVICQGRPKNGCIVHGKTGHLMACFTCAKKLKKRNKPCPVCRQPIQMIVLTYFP

Sequence of Diphosphomevalonate decarboxylase (Q9FD53 whole entry): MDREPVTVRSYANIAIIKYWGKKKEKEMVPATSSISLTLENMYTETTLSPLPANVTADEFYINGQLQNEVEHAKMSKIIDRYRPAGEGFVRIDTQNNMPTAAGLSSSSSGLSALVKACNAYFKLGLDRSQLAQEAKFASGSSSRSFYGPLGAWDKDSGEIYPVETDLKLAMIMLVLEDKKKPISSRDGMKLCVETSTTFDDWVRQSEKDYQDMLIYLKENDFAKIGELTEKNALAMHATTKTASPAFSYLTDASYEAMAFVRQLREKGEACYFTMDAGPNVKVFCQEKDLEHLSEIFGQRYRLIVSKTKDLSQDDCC

CCCN(CCC)C(=O)c1cccc(-n2sc3ccccc3c2=O)c1
IC50 [1]: 18.1 µM (active)

COc1cc2c(cc1OC)-c1cc(Nc3ccc(F)cc3)nc(=O)n1CC2
EC50 [2]: < 0.3 µM (active) | EC50 [3]: 1.82 µM (active) | EC50 [4]: > 112 µM (not active)

O=c1ccc2[n+]([O-])c3ccc(O)cc3oc-2c1
EC50 [5]: 37.7 µM (active) | EC50 [6]: > 300 µM (not active) | IC50 (Genome polyprotein): 1.61 µM (active) | AC50 (Caspase-6): 0.285 µM (active) | IC50 [7]: 10.1 µM (not active) | CC50 (Vero [8]): > 40 µM (active) | IC50 [9]: 59.4 µM (active)

CCCN1CCN(CCCNC(=O)c2cc3c(s2)-c2ccccc2OC3)CC1
IC50 (Vero [10]): 20 µM (active) | CC50 (Vero [11]): > 25 µM (active)

CSc1ncc(C(=O)Nc2ccc(Cl)cc2)c(C)n1
EC50 [12]: 0.0222 µM (active)

Cc1nc2ccc(C(=O)NCc3ccc4c(c3)OCO4)cc2s1
EC50 [13]: > 120 µM (not active)

COc1ccc(CCNC(=O)COC(=O)c2cnc(C)cn2)cc1OC
EC50 [14]: 0.17 µM (not active)
